Consider 1 molecule from patent US8927580B2, “Thiosemicarbazone compounds and use in the treatment of cancer” (Oncochel Therapeutics LLC, priority 2010, dated 2015).

The test system of series [1] is SK-N-MC neuroepithelioma cells. The series is described as follows: Iron efflux assay (59Fe release from pre-labeled cells). Format: cell-based, human. Particulars: 25 μM chelator, 3 h at 37° C. The protocol:
The culture dishes were then placed on ice, the supernatant containing excess ^59Fe-Tf was aspirated and the cells washed 4 times with ice-cold PBS. […] After 3 h the culture dishes were again placed on ice, the media was collected in counting tubes and this provided a measurement of released ^59Fe. Ice-cold PBS (1 mL) was added to plates containing cells and cells were scraped from the plastic surface using a Teflon spatula and also collected in counting tubes. These tubes represent the intracellular ^59Fe content. Results are expressed as total ^59Fe released as a percentage of total ^59Fe present. Radioactivity was measured using a Wallac Wizard 3″ Gamma Counter (PerkinElmer, MA, USA).

For series [2], the system named is NDRG1. The series is described as follows: Western blot analysis, NDRG1 expression. The settings on record: MIAPaCa-2 cells. Format: cell-based. The protocol:
(§1) Western analysis was performed via established protocols (Gao, J. and D. R. Richardson (2001). Blood 98: 842-50). The primary antibodies used were against NDRG1 (Abcam; UK), p21, cyclin D1, transferrin receptor 1 (TfR1; Santa Cruz, CA, USA) and β-actin (Sigma-Aldrich), with secondary HRP-conjugated goat and mouse antibodies (Sigma-Aldrich).
(§2) Dp4cycH4mT was examined to determine whether it could up-regulate NDRG-1 expression. To further evaluate the effect of the chelator Dp4cycH4mT on other key molecules involved in cell cycle progression, the expression of the cyclin-dependent kinase inhibitor, p21, as well as cyclin D1 in MIAPaCa-2 cells was also examined.
In general terms: Immunoblotting shows a protein as a band on a membrane.

Series [3] in a line: PANC 1 xenograft study: body and organ weights, haematology, histopathology.
For series [4], the system named is cyclin D1. Briefly: Western blot analysis, cyclin D1 levels. Format: cell-based. The settings on record: MIAPaCa-2 cells. As to the method: as §1, §2
In series [5] the test system is methemoglobin (metHb). The series is described as follows: metHb formation in vivo. Details: species or system C57BL6 mice. Particulars: 6 mg/kg intravenously, blood taken after 30 min. As to the method:
FIG. 13. Effect of thiosemicarbazone chelators on metHb-formation in vivo. MetHb after Dp44mT, Triapine® or Dp4cycH4mT treatment in vivo at a dose of 6 mg/kg administered intravenously via the tail vein. Mice in the control group were treated with vehicle alone. At 30 minutes post-administration, whole blood was collected for determination of metHb levels.
(§3) The levels of metHb and metMb in RBC lysates were determined using a Shimadzu UV-Vis spectrophotometer (UV-1800; Shimadzu Corporation, Kyoto, Japan) at 577 nm and 630 nm for metHb and metMb in accordance with published methods (Winterbourn CC and Carrell R W (1977). Biochem J 165: 141-148).
(§4) C57BL6 mice (7-8 weeks-old) were used under a protocol approved by the university of Sydney Animal Ethics Committee. Dp44mT, Triapine® or Dp4cycH4mT (all at 6 mg/kg) were dissolved in 30% propylene glycol/saline and administered iv via the tail vein. Subsequently, 30 min after administration, mice were anesthetized with isoflurane and blood samples obtained by cardiac puncture. Blood samples were lysed with 2.5 volumes of ultrapure water for metHb estimation. Mice were sacrificed with isoflurane, the heart exhaustively perfused with HBSS and Mb isolated.

Series [6] has as its system metmyoglobin (metMb). Briefly: metMb formation in vivo. Also noted: species or system C57BL6 mice. The settings on record: 6 mg/kg intravenously, 30 min post-administration, heart. The protocol: FIG. 14. Effect of thiosemicarbazone chelators on metMb-formation in vivo. MetMb levels after Dp44mT Triapine® or Dp4cycH4mT treatment in vivo at a dose of 6 mg/kg administered intravenously via the tail vein. Mice in the control group were treated with vehicle alone. At 30 min post-administration, whole hearts were collected for determination of metMb levels.
Mouse heart tissue was exhaustively perfused with ice-cold HBSS to remove blood and homogenized in ice-cold HBSS containing protease inhibitor cocktail (Roche, Basel, Switzerland). Heart homogenates were centrifuged (16,000×xg/45 min/4° C.) and the supernatant ([oxyMb]=50 μM) used immediately.
as §3, §4

Series [7] relates to PANC 1 human pancreatic carcinoma. Briefly: PANC 1 xenograft in nude mice: tumour growth. Format: in vivo, nude mice (BALBc nu/nu). The settings on record: Dp4cycH4mT 5 mg/kg/day i.v. As to the method:
FIG. 5). […] (5 mg/kg) or vehicle control.

Series [8] relates to SK-N-MC neuroepithelioma cells. Briefly: Iron uptake assay (59Fe uptake from 59Fe-transferrin). The settings on record: 25 μM chelator, 3 h at 37° C., 59Fe-Tf. Format: cell-based, human. As to the method: Cells were cultured in the same way as for the iron efflux experiments. […] At the end of the incubation the culture dishes were placed on ice, the media aspirated, and the cells washed 4 times with ice cold PBS. Protease (1 mL; 1 mg/mL; Sigma-Aldrich, NSW, Australia) solution was added to each plate and allowed to incubate on ice for 30 min. This facilitated the removal of membrane bound ^59Fe-Tf. Cells were then scraped from the plastic surface using a Teflon spatula and collected in Eppendorf tubes. These were centrifuged at 10000 rpm and 4° C. for 3 min. The supernatant was then transferred into counting tubes and the cell pellet resuspended in PBS before also being transferred into another set of counting tubes. Radioactivity was measured using a Wallac Wizard 3″ Gamma Counter (PerkinElmer, MA, USA). Results are expressed as average ^59Fe content of the cellular fraction as a percentage of the control value.

With `CN(C(=S)NN=C(c1ccccn1)c1ccccn1)C1CCCCC1` [Dp4cycH4mT, di-2-pyridylketone 4-cyclohexyl-4-methyl-3-thiosemicarbazone], the “cellular 59Fe mobilised (59Fe released as percentage of total 59Fe)” value in series [1] is given as 22%. Also, the NDRG1 expression entry in series [2] is recorded as “significantly (p<0.01) up-regulated”. In series [3] (Dp4cycH4mT 5 mg/kg/day), the HCT is 0.41 ± 0.01, the Hb is recorded as 131.88 ± 4.31 g/L, the Platelets is listed as 1283 ± 160 10^9/L and the RBC was 9.46 ± 0.31 × 10^12/L. Also, in series [3] (Dp4cycH4mT 5 mg/kg/day), the Reticulocytes is listed as 0.77 ± 0.08 × 10^12/L and the WBC was 3.5 ± 0.34 × 10^9/L. Besides, in series [3] (Dp4cycH4mT 5 mg/kg/day i.v.), the “Body weight loss (% initial weight)” value amounted to 88.0 ± 6.5 % initial weight, the Brain weight came to 0.30 ± 0.01 g, the Heart weight is 0.09 ± 0.01 g and the Kidney weight is listed as 0.17 ± 0.02 g. In series [3] (Dp4cycH4mT 5 mg/kg/day i.v.), this molecule yielded a Liver weight of 0.80 ± 0.03 g and a Spleen weight of 0.08 ± 0.01 g. In addition, the “cyclin D1 levels” value in series [4] is recorded as “significantly (p<0.05) reduced”. For the same molecule, the “metHb (% of total Hb)” value in series [5] is given as “comparable to the control”. For the same molecule, the “levels of metMb” value in series [6] is listed as 31.7±3.2%. Besides, the Tumour weight in series [7] amounted to 0.04 ± 0.01 g. The “cellular 59Fe uptake (% of the control)” value in series [8] is on record as 21%.
